These results are taken from ChEMBL document CHEMBL4229381, “New cytokinin derivatives possess UVA and UVB photoprotective effect on human skin cells and prevent oxidative stress” (Eur J Med Chem, 2018).

Data set [1] deals with Triticum aestivum. Put plainly: Anti-senescent activity in leaf of Triticum aestivum cv. Hereward seedlings by measuring chlorophyll retention at 10^-4 mol/L after 4 days relative to control. In kind it is functional.
Data set [2] concerns NHDF. Briefly: Cytoprotection against phototoxicity in human NHDF cells assessed as increase in cell viability at 3.9 to 31.3 uM preincubated for 60 mins followed by 150 mJ/cm2 UVB irradiation and measured after 24 hrs by neutral red uptake assay. In kind it is functional, cell-based.
Data set [3] relates to Nicotiana tabacum. Briefly: Growth promoting activity in tobacco callus assessed as callus weight at 10^-5 mol/L after 4 weeks relative to control. In kind it is functional.
For data set [4], the system named is Caenorhabditis elegans. Put plainly: Protection against juglone-induced oxidative stress in Caenorhabditis elegans BA17 (fem-1) at 100 uM preincubated for 3 days followed by juglone addition measured every hour for 12 ro 14 hrs by inverted microscopic analysis. In kind it is functional, organism-based.
Data set [5] has as its system Amaranthus caudatus. Put plainly: Growth promoting activity in Amaranthus caudatus var. atropurpurea seeds by measuring betacyanin at 10^-4 mol/L after 48 hrs relative to control. In kind it is functional.
In data set [6] the test system is NHDF. Briefly: Cytoprotection against phototoxicity in human NHDF cells assessed as increase in cell viability at 3.9 to 31.3 uM preincubated for 60 mins followed by 7.5 J/cm2 UVA irradiation and measured after 24 hrs by neutral red uptake assay. In kind it is functional, cell-based.
The subject of data set [7] is BJ. Briefly: Cytotoxicity in human BJ cells assessed as reduction in cell viability at 50 uM after 24 hrs by resazurin dye-based fluorescence assay relative to control. In general terms: Alamar Blue is a resazurin reagent that responds to reducing activity.
Data set [8] in a line: Cytotoxicity in human HaCaT cells assessed as cell viability at 125 uM after 24 hrs by neutral red uptake assay relative to control. In kind it is cell-based. The conditions noted are these: read-out: Activity.
Data set [9] can be described thus: Phototoxicity in human NHDF cells assessed as cell viability at 125 uM preincubated for 60 mins followed by 5 J/cm2 UVA irradiation and measured after 24 hrs by neutral red uptake assay relative to control. In kind it is cell-based. The conditions noted are these: read-out: Activity.
Data set [10] in a line: Antioxidant activity assessed as trolox equivalent of AAPH-induced radical scavenging activity at 1 uM pretreated for 15 mins followed by […] challenge measured every 3 mins over 90 mins by ORAC-FL assay. In kind it is functional.
In data set [11] the test system is NHDF. Put plainly: Cytoprotection against phototoxicity in human NHDF cells assessed as increase in cell viability at 31.3 uM preincubated for 60 mins followed by 150 mJ/cm2 UVB irradiation and measured after 24 hrs by neutral red uptake assay. In kind it is functional, cell-based.
A short description of data set [12]: Phototoxicity in human HaCaT cells assessed as cell viability at 62.5 uM preincubated for 60 mins followed by 7.5 J/cm2 UVA irradiation and measured after 24 hrs by neutral red uptake assay relative to control. In kind it is cell-based. The conditions noted are these: read-out: Activity.
Data set [13] can be described thus: Phototoxicity in human HaCaT cells assessed as cell viability at 3.9 uM preincubated for 60 mins followed by 7.5 J/cm2 UVA irradiation and measured after 24 hrs by neutral red uptake assay relative to control. In kind it is cell-based. The conditions noted are these: read-out: Activity.
A short description of data set [14]: Cytotoxicity in human HaCaT cells assessed as cell viability at 3.9 uM after 24 hrs by neutral red uptake assay relative to control. In kind it is cell-based. The note with it: read-out: Activity.
A short description of data set [15]: Phototoxicity in human NHDF cells assessed as cell viability at 62.5 uM preincubated for 60 mins followed by 5 J/cm2 UVA irradiation and measured after 24 hrs by neutral red uptake assay relative to control. In kind it is cell-based. The note with it: read-out: Activity.
The nature of data set [16]: Phototoxicity in human NHDF cells assessed as cell viability at 15.6 uM preincubated for 60 mins followed by 5 J/cm2 UVA irradiation and measured after 24 hrs by neutral red uptake assay relative to control. In kind it is cell-based. The conditions noted are these: read-out: Activity.
In data set [17] the test system is HaCaT. Briefly: Cytoprotection against phototoxicity in human HaCaT cells assessed as increase in cell viability at 3.9 uM preincubated for 60 mins followed by 10 J/cm2 UVA irradiation and measured after 24 hrs by neutral red uptake assay. In kind it is functional, cell-based.
Data set [18] is described as follows: Cytotoxicity in human NHDF cells assessed as cell viability at 3.9 uM after 24 hrs by neutral red uptake assay relative to control. In kind it is cell-based. The note with it: read-out: Activity.
A short description of data set [19]: Cytotoxicity in human NHDF cells assessed as cell viability at 15.6 uM after 24 hrs by neutral red uptake assay relative to control. In kind it is cell-based. The conditions noted are these: read-out: Activity.
Data set [20] in a line: Cytotoxicity in human NHDF cells assessed as cell viability at 7.8 uM after 24 hrs by neutral red uptake assay relative to control. In kind it is cell-based. The note with it: read-out: Activity.
Data set [21] is described as follows: Cytotoxicity in human HaCaT cells assessed as cell viability at 15.6 uM after 24 hrs by neutral red uptake assay relative to control. The conditions noted are these: read-out: Activity. In kind it is cell-based.
Data set [22] can be described thus: Cytotoxicity in human HaCaT cells assessed as cell viability at 31.3 uM after 24 hrs by neutral red uptake assay relative to control. The note with it: read-out: Activity. In kind it is cell-based.
Data set [23] in a line: Cytotoxicity in human NHDF cells assessed as cell viability at 125 uM after 24 hrs by neutral red uptake assay relative to control. In kind it is cell-based. The note with it: read-out: Activity.
Data set [24] has as its system HaCaT. Put plainly: Cytotoxicity in human HaCaT cells assessed as reduction in cell viability at 50 uM after 24 hrs by resazurin dye-based fluorescence assay relative to control.
The nature of data set [25]: Cytotoxicity in human NHDF cells assessed as cell viability at 62.5 uM after 24 hrs by neutral red uptake assay relative to control. In kind it is cell-based. The conditions noted are these: read-out: Activity.
Data set [26] can be described thus: Phototoxicity in human NHDF cells assessed as cell viability at 3.9 uM preincubated for 60 mins followed by 5 J/cm2 UVA irradiation and measured after 24 hrs by neutral red uptake assay relative to control. The conditions noted are these: read-out: Activity. In kind it is cell-based.
The nature of data set [27]: Phototoxicity in human HaCaT cells assessed as cell viability at 15.6 uM preincubated for 60 mins followed by 7.5 J/cm2 UVA irradiation and measured after 24 hrs by neutral red uptake assay relative to control. In kind it is cell-based. The note with it: read-out: Activity.
The nature of data set [28]: Phototoxicity in human NHDF cells assessed as cell viability at 31.3 uM preincubated for 60 mins followed by 5 J/cm2 UVA irradiation and measured after 24 hrs by neutral red uptake assay relative to control. In kind it is cell-based. The note with it: read-out: Activity.
Data set [29] in a line: Phototoxicity in human HaCaT cells assessed as cell viability at 7.8 uM preincubated for 60 mins followed by 7.5 J/cm2 UVA irradiation and measured after 24 hrs by neutral red uptake assay relative to control. The conditions noted are these: read-out: Activity. In kind it is cell-based.
Data set [30] in a line: Phototoxicity in human NHDF cells assessed as cell viability at 7.8 uM preincubated for 60 mins followed by 5 J/cm2 UVA irradiation and measured after 24 hrs by neutral red uptake assay relative to control. In kind it is cell-based. The conditions noted are these: read-out: Activity.
Data set [31] is described as follows: Cytotoxicity in human NHDF cells assessed as cell viability at 31.3 uM after 24 hrs by neutral red uptake assay relative to control. The conditions noted are these: read-out: Activity. In kind it is cell-based.
The nature of data set [32]: Cytotoxicity in human HaCaT cells assessed as cell viability at 7.8 uM after 24 hrs by neutral red uptake assay relative to control. In kind it is cell-based. The note with it: read-out: Activity.
Data set [33] can be described thus: Phototoxicity in human HaCaT cells assessed as cell viability at 125 uM preincubated for 60 mins followed by 7.5 J/cm2 UVA irradiation and measured after 24 hrs by neutral red uptake assay relative to control. In kind it is cell-based. The conditions noted are these: read-out: Activity.
Data set [34] is described as follows: Phototoxicity in human HaCaT cells assessed as cell viability at 31.3 uM preincubated for 60 mins followed by 7.5 J/cm2 UVA irradiation and measured after 24 hrs by neutral red uptake assay relative to control. In kind it is cell-based. The conditions noted are these: read-out: Activity.
Data set [35] is described as follows: Cytotoxicity in human HaCaT cells assessed as cell viability at 62.5 uM after 24 hrs by neutral red uptake assay relative to control. In kind it is cell-based. The conditions noted are these: read-out: Activity.
The subject of data set [36] is HaCaT. Put plainly: Cytoprotection against phototoxicity in human HaCaT cells assessed as increase in cell viability at 3.9 to 31.3 uM preincubated for 60 mins followed by 10 J/cm2 UVA irradiation and measured after 24 hrs by neutral red uptake assay. In kind it is functional, cell-based.

Calls of active or inactive are those of the source. No cut-off for these calls is given here.

Turning to `c1coc(CNc2ncnc3c2ncn3C2CCCO2)c1` (centres undefined), the results for the Activity in data set [1], in [3] and in [5] were 125%, 111% and 70%, respectively. Further, the outcome in [2], in data set [4] and in [6] was Active.
Regarding `c1nc(NCC2CCCC2)c2nc[nH]c2n1`, the Activity in [1] turned out to be 71%; in data set [3], 100%; in data set [5], 97%.
For the compound `Cc1ccsc1CNc1ncnc2c1ncn2C1CCCO1` (centres undefined), the Activity turned out to be 110% in [1] and 99% in [3].
On to `Clc1nc(NCc2cccs2)c2ncn(C3CCCO3)c2n1` (centres undefined), for which, in data set [1], the outcome was inactive. Also, the results for the Activity in [3] and in data set [5] were 108% and 101%, respectively.
For `c1ccc(CNc2ncnc3[nH]cnc23)cc1` [6-BENZYLAMINOPURINE], the Activity in data set [3] amounted to 20%.
For `c1nc(NCC2CCCO2)c2nc[nH]c2n1` (centres undefined), the Activity in data set [7] was less than 10%; in data set [10], less than 0.05 equiv; in data set [1] it was 114%; in data set [24] it was less than 10%; in [3] it was 110%; in [5], 109%. For the same compound, the viability at 24 h, 125 µM was found to be 102% in data set [8], 103% in data set [9], 101% in data set [23] and 119% in [33]. In addition, the result in [11] and in data set [17] was Active. In addition, the results for the viability at 24 h, 62.5 µM in data set [12], in data set [15] and in data set [25] were 118%, 100% and 102%, respectively. Moreover, the viability at 24 h, 3.9 µM turned out to be 101% in data set [13], 102% in data set [14], 102% in data set [18] and 99% in data set [26]. Besides, the viability at 24 h, 15.6 µM in data set [16] amounted to 100%; in data set [19], 101%; in data set [21], 102%; in data set [27], 106%. Moreover, the viability at 24 h, 7.8 µM turned out to be 103% in data set [20], 103% in data set [29], 101% in [30] and 104% in data set [32]. Moreover, the viability at 24 h, 31.3 µM in [22] amounted to 104%; in [28], 101%; in data set [31], 102%; in data set [34], 113%.
On to `OCc1ccc(CNc2ncnc3c2ncn3C2CCCO2)o1` (centres undefined), for which the Activity in [7] is less than 10%; in data set [10], 0.77 equiv; in data set [1] it was 75%; in [24], less than 10%; in [3] it was 103%. In addition, the viability at 24 h, 125 µM in data set [8] stood at 110%; in [9], 112%; in data set [23] it was 110%; in data set [33], 125%. Further, the viability at 24 h, 62.5 µM in [12] turned out to be 121%; in [15] it was 111%; in data set [25], 107%; in data set [35] it was 106%. Besides, the viability at 24 h, 3.9 µM stood at 104% in data set [13], 100% in data set [14], 103% in data set [18] and 101% in data set [26]. The viability at 24 h, 15.6 µM worked out at 102% in [16], 104% in [19], 102% in data set [21] and 108% in data set [27]. The outcome in data set [17] was Active. Also, the viability at 24 h, 7.8 µM is 105% in data set [20], 111% in data set [29], 107% in data set [30] and 100% in data set [32]. Moreover, the viability at 24 h, 31.3 µM in data set [22] came out at 108%; in data set [28] it was 107%; in data set [31], 108%; in [34], 118%.
`c1csc(CCNc2ncnc3[nH]cnc23)c1`: the result in [1] was inactive. Also, the Activity in data set [3] is on record as 77%; in [5], 80%.
On to `O=C(/C=C/c1ccc(O)c(O)c1)O[C@H](Cc1ccc(O)c(O)c1)C(=O)O`, for which the Activity in data set [10] was 9.14 equiv. For the same compound, the outcome in [2], in data set [17], in data set [6] and in data set [36] was Active.
